According to patent publication US8455469B2, “Use of norgestimate as a selective inhibitor of TRPC3, TRPC6 and TRPC7 ion channels” (Sanofi, priority 2007, dated 2013):

Assays:
Assay type in all cases: cell-based
[1] = target: T1, V1 receptor (Rattus norvegicus, UniProt P30560); experiment: Calcium imaging of fura-2-loaded A7r5 cells stimulated with AVP; conditions: 10 μM, 5 min preincubation, calcium-free solution, 100 nM AVP
T1 construct: endogenous in cells; host or cells: A7r5 (rat aortic smooth muscle)
Description: The A7r5 cell line (derived from rat thoracic aorta smooth muscle cells) is a model system to investigate endogenous TRPC channels (Jung et al., 2002; Soboloff et al., 2005). The channels were indirectly stimulated by Arg^8-vasopressin (AVP), a vasoconstricting peptide that activates the endogenous vasopressin V1A receptor in these cells (Thibonnier et al., 1991).
Time-dependent changes of [Ca^2+]i; of fura-2-loaded A7r5 cells. Cells were preincubated with or without (control) 10 μM norgestimate (NG) in calcium-free standard extracellular solution (1 mM EGTA) for 5 min before stimulating the V1 receptor by application of 100 nM AVP. Data are represented as means of 33 cells (control) and 36 cells (10 μM norgestimate). Measurements were performed using a standard imaging setup (TILL Photonics, Gräfelfing, Germany).

[2] = system: TRPC3/6/7 subfamily members versus TRPC4/5 subfamily members; experiment: Fluorometric measurements, potency compared between TRPC subfamilies; conditions: based on calculated inhibition by 10 μM norgestimate
Description: The 4-fold more potency of norgestimate on TRPC3/6/7 subfamily members than on TRPC4/5 subfamily members was evaluated with fluorometric measurements and based on the calculated inhibition by 10 μM norgestimate.

[3] = target: T2, TRPC3 (Homo sapiens, UniProt Q13507); experiment: FLIPR Ca2+ influx measurement, OAG-activated TRPC3 HEK293 cells; conditions: 30 μM OAG
T2 construct: expressed in transfected cells; host or cells: HEK293 (inducible expression)
T2 sequence (Q13507 1-921): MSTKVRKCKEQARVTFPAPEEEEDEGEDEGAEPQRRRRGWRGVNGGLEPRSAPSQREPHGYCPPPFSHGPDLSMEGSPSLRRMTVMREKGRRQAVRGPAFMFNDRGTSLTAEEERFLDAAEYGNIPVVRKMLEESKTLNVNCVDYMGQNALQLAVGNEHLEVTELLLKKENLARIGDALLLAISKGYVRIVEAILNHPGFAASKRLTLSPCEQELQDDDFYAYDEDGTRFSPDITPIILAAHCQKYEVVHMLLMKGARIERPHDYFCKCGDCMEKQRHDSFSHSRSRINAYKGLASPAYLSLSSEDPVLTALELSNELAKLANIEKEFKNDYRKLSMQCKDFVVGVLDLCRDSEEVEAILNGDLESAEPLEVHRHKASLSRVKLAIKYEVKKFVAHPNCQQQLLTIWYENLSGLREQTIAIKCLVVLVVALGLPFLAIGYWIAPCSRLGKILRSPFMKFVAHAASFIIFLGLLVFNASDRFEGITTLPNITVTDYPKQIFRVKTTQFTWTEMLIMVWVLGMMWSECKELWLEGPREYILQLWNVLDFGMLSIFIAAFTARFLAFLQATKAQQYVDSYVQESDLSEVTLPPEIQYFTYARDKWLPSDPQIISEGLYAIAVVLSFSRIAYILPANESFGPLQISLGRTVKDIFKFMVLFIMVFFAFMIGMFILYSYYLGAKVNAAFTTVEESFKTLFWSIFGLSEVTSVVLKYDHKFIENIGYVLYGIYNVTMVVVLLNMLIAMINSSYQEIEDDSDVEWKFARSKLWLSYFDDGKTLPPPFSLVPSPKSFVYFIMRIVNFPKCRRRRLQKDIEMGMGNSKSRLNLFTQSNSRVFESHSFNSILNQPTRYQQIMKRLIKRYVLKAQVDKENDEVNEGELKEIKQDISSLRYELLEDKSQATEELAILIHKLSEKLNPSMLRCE
Description: In general, cells are provided which express a TRPC channel. Such cells can be produced using genetic methods known to a person skilled in the art. After having induced the expression of the TRPC channel, cells are usually plated into e.g. microtiter plates and grown. Usually the cells grow at the bottom of multiwell plates and are fixed. Thereafter, the cells are generally washed and loaded with a dye in a suitable loading buffer, preferably with a fluorescent dye such as fluo4am. After having removed the loading buffer, the cells are incubated with the test compound or modulator, in particular with a biochemical or chemical test compound as described above, e.g. in the form of a chemical compound library. Ca^2+ measurements can be carried out using e.g. a Fluorescence Imaging Plate Reader (FLIPR). To stimulate Ca^2+ influx through the TRPC channel a channel activator such as OAG should generally be applied.
TRPC3 and TRPC6 were directly activated by application of oleoyl-2-acetyl-sn-glycerol (OAG), a membrane permeable diacylglycerol analogue.
(A, C) Time-dependent changes of intracellular Ca^2+ concentration ([Ca^2+]i) of fluo-4-loaded induced TRPC3 HEK293 cells (A) and TRPC6 HEK293 cells (C). […] Measurements were performed in 96er well plates using FLIPR (Molecular Devices, Sunnyvale, Calif., USA) (B, D) Determination of norgestimates IC50 value on TRPC3 (B) and TRPC6 (D). […]

T1 sequence (P30560 whole entry): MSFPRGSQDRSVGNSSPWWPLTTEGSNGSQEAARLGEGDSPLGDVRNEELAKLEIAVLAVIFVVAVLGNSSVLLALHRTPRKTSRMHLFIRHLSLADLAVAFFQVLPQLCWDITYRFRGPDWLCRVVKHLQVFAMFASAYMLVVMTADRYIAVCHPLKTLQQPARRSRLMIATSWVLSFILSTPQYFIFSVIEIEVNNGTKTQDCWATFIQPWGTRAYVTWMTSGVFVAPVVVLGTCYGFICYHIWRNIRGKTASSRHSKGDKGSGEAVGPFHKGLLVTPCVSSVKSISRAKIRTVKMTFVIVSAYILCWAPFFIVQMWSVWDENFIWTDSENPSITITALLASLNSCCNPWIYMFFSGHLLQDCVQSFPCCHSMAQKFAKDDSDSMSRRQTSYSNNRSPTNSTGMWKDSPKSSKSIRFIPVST

C#C[C@]1(OC(C)=O)CC[C@H]2[C@@H]3CCC4=C/C(=N/O)CC[C@@H]4[C@H]3CC[C@@]21CC [norgestimate, D-17β-acetoxy-B-ethyl-17α ethinyl-gon-4-en-3-one oxime]
effect on V1 receptors (AVP-evoked [Ca2+]i) [1]: does not generally suppress
fold more potent on TRPC3/6/7 subfamily members than on TRPC4/5 subfamily members [2]: at least 4 fold
IC50 ([3]; FLIPR, n=2): 2.8 ± 0.4 µM
TRPC3-mediated Ca2+ influx following application of OAG ([3]; cells preincubated with 30 μM norgestimate): strongly reduced
